Measured values reported in article PMC6150375, “Synthesis, Biological Evaluation and Molecular Docking Study of 2-Substituted-4,6-Diarylpyrimidines as α-Glucosidase Inhibitors” (Molecules : A Journal of Synthetic Chemistry and Natural …, 2017).

melting point [°C] | Structure (SMILES)
129 to 130 | Cc1ccc(-c2cc(-c3ccc(Br)cc3)nc(SCc3ccccc3)n2)cc1 [Compound 6o, 2-(Benzylthio)-4-(4-bromophenyl)-6-(p-tolyl)pyrimidine]
100 to 104 | Cc1ccc(-c2cc(-c3cccc(Br)c3)nc(SCc3ccccc3F)n2)cc1 [Compound 6i, 4-(3-Bromophenyl)-2-((2-fluorobenzyl)thio)-6-(p-tolyl)pyrimidine]
94 to 96 | Fc1cccc(CSc2nc(-c3ccc(Br)cc3)cc(-c3cccc(Br)c3)n2)c1 [Compound 6t, 4-(3-Bromophenyl)-6-(4-bromophenyl)-2-((3-fluorobenzyl)thio)pyrimidine]
147 to 148 | Clc1ccccc1CSc1nc(-c2ccc(Br)cc2)cc(-c2ccc(Br)cc2)n1 [Compound 6a, 4,6-Bis(4-bromophenyl)-2-((2-chlorobenzyl)thio)pyrimidine]
129 to 132 | Clc1ccccc1CSc1nc(-c2ccc(Br)cc2)cc(-c2cccc(Br)c2)n1 [Compound 6s, 4-(3-Bromophenyl)-6-(4-bromophenyl)-2-((2-chlorobenzyl)thio)pyrimidine]
123 to 126 | Cc1ccc(-c2cc(-c3ccc(Br)cc3)nc(SCc3ccccc3Br)n2)cc1 [Compound 6k, 2-((2-Bromobenzyl)thio)-4-(4-bromophenyl)-6-(p-tolyl)pyrimidine]
115 to 124 | Cc1ccc(-c2cc(-c3ccc(Br)cc3)nc(SCc3ccc(F)cc3)n2)cc1 [Compound 6l, 4-(4-Bromophenyl)-2-((4-fluorobenzyl)thio)-6-(p-tolyl)pyrimidine]
107 to 110 | Cc1ccc(-c2cc(-c3cccc(Br)c3)nc(SCc3ccccc3Cl)n2)cc1 [Compound 6f, 4-(3-Bromophenyl)-2-((2-chlorobenzyl)thio)-6-(p-tolyl)pyrimidine]
149 to 150 | Fc1ccccc1CSc1nc(-c2ccc(Br)cc2)cc(-c2ccc(Br)cc2)n1 [Compound 6d, 4,6-Bis(4-bromophenyl)-2-((2-fluorobenzyl)thio)pyrimidine]
135 to 138 | Cc1ccc(-c2cc(-c3cccc(Br)c3)nc(SCc3ccc(Br)cc3)n2)cc1 [Compound 6r, 2-((4-Bromobenzyl)thio)-4-(3-bromophenyl)-6-(p-tolyl)pyrimidine]
124 to 127 | Cc1ccc(-c2cc(-c3ccc(Br)cc3)nc(SCc3ccccc3F)n2)cc1 [Compound 6m, 4-(4-Bromophenyl)-2-((2-fluorobenzyl)thio)-6-(p-tolyl)pyrimidine]
106 to 109 | Cc1ccc(-c2cc(-c3ccc(Br)cc3)nc(SCc3cccc(F)c3)n2)cc1 [Compound 6n, 4-(4-Bromophenyl)-2-((3-fluorobenzyl)thio)-6-(p-tolyl)pyrimidine]
176 to 178 | Clc1ccc(CSc2nc(-c3ccc(Br)cc3)cc(-c3ccc(Br)cc3)n2)cc1 [Compound 6b, 4,6-Bis(4-bromophenyl)-2-((4-chlorobenzyl)thio)pyrimidine]
